Molecular target: T1, chicken gizzard smooth muscle myosin subfragment-1 chemically crosslinked to cardiac or skeletal actin (Gallus gallus, UniProt P10587)
T1 construct: chicken gizzard smooth muscle myosin subfragment-1; from tissue; host or cells: chicken gizzard
Test: Smooth muscle myosin ATPase dose response assay (pyruvate kinase/horseradish peroxidase/pyruvate oxidase-coupled, amplex red fluorescence)
Type: biochemical
Conditions: read-out: IC50 Arithmetic Mean
Procedure, shortened: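 ATPase monitored by amplex red fluorescence (ex 480/em 615 nm) via pyruvate oxidase/HRP coupling, pH 7.00, ATP 0.15 mM. Enzyme: smooth muscle S1-actin crosslinked conjugate, amount set empirically by titration. Dose-response fitted with 4-parameter Hill equation for IC50.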

T1 sequence (P02607 2-151): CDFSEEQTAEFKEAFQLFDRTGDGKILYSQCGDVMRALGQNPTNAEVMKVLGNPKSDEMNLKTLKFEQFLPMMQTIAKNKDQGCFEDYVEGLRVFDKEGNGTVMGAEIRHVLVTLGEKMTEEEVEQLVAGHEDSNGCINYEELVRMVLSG
T1 sequence (P10587 84-789): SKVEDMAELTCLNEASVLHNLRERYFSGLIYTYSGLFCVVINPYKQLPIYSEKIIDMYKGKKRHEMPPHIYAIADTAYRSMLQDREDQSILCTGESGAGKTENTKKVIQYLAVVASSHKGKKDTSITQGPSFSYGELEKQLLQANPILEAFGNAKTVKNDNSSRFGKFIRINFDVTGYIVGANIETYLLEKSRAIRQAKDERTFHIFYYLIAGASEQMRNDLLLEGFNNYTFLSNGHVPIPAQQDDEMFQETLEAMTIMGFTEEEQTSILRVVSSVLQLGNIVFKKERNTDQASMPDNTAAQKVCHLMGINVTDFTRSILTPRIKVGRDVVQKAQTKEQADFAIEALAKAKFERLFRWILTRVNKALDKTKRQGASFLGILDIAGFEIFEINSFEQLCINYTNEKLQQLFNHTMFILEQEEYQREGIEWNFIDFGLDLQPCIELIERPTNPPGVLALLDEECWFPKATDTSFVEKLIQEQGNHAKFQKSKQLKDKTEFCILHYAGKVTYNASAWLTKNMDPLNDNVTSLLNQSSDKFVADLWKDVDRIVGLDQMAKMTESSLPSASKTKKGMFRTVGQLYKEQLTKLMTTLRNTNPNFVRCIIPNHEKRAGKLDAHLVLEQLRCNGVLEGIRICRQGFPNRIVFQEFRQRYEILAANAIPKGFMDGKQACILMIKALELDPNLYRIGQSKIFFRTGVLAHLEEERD

**Q.** For `N[C@@H](CO)C(=O)N1CCCC1CNC(=O)c1cc(F)c(-c2cc[nH]n2)nc1NCCc1cccc(F)c1` (stereo partly drawn) [N-{[(2R)-1-((2S)-2-amino-3-hydroxypropanoyl)pyrrolidin-2-yl]methyl}(5-fluoro-2-{[2-(3-fluorophenyl)ethyl]amino}-6-pyrazol-3-yl(3-pyridyl))carboxamide], which IC50 is on record?
**A.** 269 nM

**Q.** For `Cn1cc(-c2ccc(C(=O)NCc3ccn(CCCN)n3)c(NCCc3cccc(F)c3)n2)cn1` [N-{[1-(3-aminopropyl)pyrazol-3-yl]methyl}(2-{[2-(3-fluorophenyl)ethyl]amino}-6-(1-methylpyrazol-4-yl)(3-pyridyl))carboxamide], which IC50 is on record?
**A.** 2690 nM

**Q.** For `NCC(O)c1ccc(-c2ccccc2)nc1NCCc1cccc(F)c1` (centres unmarked) [2-amino-1-(2-{[2-(3-fluorophenyl)ethyl]amino}-6-phenyl(3-pyridyl))ethan-1-ol], which IC50 is on record?
**A.** 52500 nM

**Q.** How did the IC50 turn out when `CN(CCNC(=O)CNC(=O)c1ccc(-c2ccccc2C#N)nc1NCCc1cccc(F)c1)C(=O)OC(C)(C)C` [N-{2-[(tert-butoxy)-N-methylcarbonylamino]ethyl}-2-[(6-(2-cyanophenyl)-2-{[2-(3-fluorophenyl)ethyl]amino}(3-pyridyl))carbonylamino]acetamide] was run?
**A.** 65500 nM

**Q.** How did the IC50 turn out when `N#Cc1ccccc1-c1ccc(C(=O)NCc2cccnc2)c(NCCC2CCCO2)n1` (centres unmarked) [{6-(2-cyanophenyl)-2-[(2-oxolan-2-ylethyl)amino](3-pyridyl)}-N-(3-pyridylmethyl)carboxamide] was run?
**A.** 920 nM

**Q.** How did the IC50 turn out when `CC(C)(C)OC(=O)N[C@@H](CO)C(=O)N1CC[C@@H]1CNC(=O)c1ccc(-c2ccccc2C#N)nc1NCCc1cccc(F)c1` [N-[2-((2R)-2-{[(6-(2-cyanophenyl)-2-{[2-(3-fluorophenyl)ethyl]amino}(3-pyridyl))carbonylamino]methyl}azetidinyl)(1S)-1-(hydroxymethyl)-2-oxoethyl](tert-butoxy)carboxamide] was run?
**A.** 2480 nM

**Q.** For `N#Cc1ccccc1-c1ccc(C(=O)NC[C@H]2CCN2C(=O)CCCN)c(NCCc2cccc(F)c2)n1` [N-{[(2R)-1-(4-aminobutanoyl)azetidin-2-yl]methyl}(6-(2-cyanophenyl)-2-{[2-(3-fluorophenyl)ethyl]amino}(3-pyridyl))carboxamide], which IC50 is on record?
**A.** 25 nM

**Q.** `CNCCNC(=O)CNC(=O)c1ccc(-c2ccccc2C#N)nc1NCCc1cccc(F)c1` [2-[(6-(2-cyanophenyl)-2-{[2-(3-fluorophenyl)ethyl]amino}(3-pyridyl))carbonylamino]-N-[2-(methylamino)ethyl]acetamide] was tested. Which IC50 did it give?
**A.** 11100 nM

**Q.** Which IC50 does the source give for `O=C(NC[C@H]1CCCN1)c1cc(F)c(-c2cn[nH]c2)nc1NCCc1cccc(F)c1` [N-[((2R)pyrrolidin-2-yl)methyl](5-fluoro-2-{[2-(3-fluorophenyl)ethyl]amino}-6-pyrazol-4-yl(3-pyridyl))carboxamide] here?
**A.** 394 nM

**Q.** With `NCc1cccc(CNC(=O)c2ccc(-c3ccccc3)nc2NCCc2cccc(F)c2)n1` [N-{[6-(aminomethyl)(2-pyridyl)]methyl}(2-{[2-(3-fluorophenyl)ethyl]amino}-6-phenyl(3-pyridyl))carboxamide] as the molecule, how does the IC50 read?
**A.** 19 nM

**Q.** For `N#Cc1ccc(F)cc1-c1ccc(C(=O)NCc2cccnc2)c(NCCc2cccc(F)c2)n1` [(6-(2-cyano-5-fluorophenyl)-2-{[2-(3-fluorophenyl)ethyl]amino}(3-pyridyl))-N-(3-pyridylmethyl)carboxamide], which IC50 is on record?
**A.** 53 nM

**Q.** `O=C(NCc1cccnc1)c1ccc(-c2ccccc2)nc1NCCc1ccc2c(c1)OCO2` was tested. Which IC50 did it give?
**A.** 28300 nM

**Q.** For `N#Cc1ccccc1-c1ccc(C(=O)NC[C@H]2CCCN2CCCN)c(NCCc2cccc(F)c2)n1`, which IC50 is on record?
**A.** 1390 nM

**Q.** Which IC50 does the source give for `O=C(NCc1cccnc1)c1ccc(-c2cccc(CO)c2)nc1NCCc1cccc(F)c1` [(2-{[2-(3-fluorophenyl)ethyl]amino}-6-[3-(hydroxymethyl)phenyl](3-pyridyl))-N-(3-pyridylmethyl)carboxamide] here?
**A.** 281 nM

**Q.** For `CC(C)(C)OC(=O)NCCCCC(=O)N1CCC[C@@H]1CNC(=O)c1ccc(-c2ccccc2C#N)nc1NCCc1cccc(F)c1` [N-[((2R)-1-{5-[(tert-butoxy)carbonylamino]pentanoyl}pyrrolidin-2-yl)methyl](6-(2-cyanophenyl)-2-{[2-(3-fluorophenyl)ethyl]amino}(3-pyridyl))carboxamide], which IC50 is on record?
**A.** 2940 nM

**Q.** How did the IC50 turn out when `CC(C)C[C@H](CNC(=O)c1ccc(-c2ccccc2C#N)nc1NCCc1cccc(F)c1)NC(=O)CN` [N-((1R)-1-{[(6-(2-cyanophenyl)-2-{[2-(3-fluorophenyl)ethyl]amino}(3-pyridyl))carbonylamino]methyl}-3-methylbutyl)-2-aminoacetamide] was run?
**A.** 913 nM

**Q.** With `COC(=O)[C@@H](N)CNC(=O)c1ccc(-c2ccccc2C#N)nc1NCCc1cccc(F)c1` [methyl (2S)-2-amino-3-[(6-(2-cyanophenyl)-2-{[2-(3-fluorophenyl)ethyl]amino}(3-pyridyl))carbonylamino]propanoate] as the molecule, how does the IC50 read?
**A.** 619 nM

**Q.** For `Cc1ccc(-c2ccc(C(=O)NCc3cccnc3)c(NCCc3ccccn3)n2)c(C)c1` [{6-(2,4-dimethylphenyl)-2-[(2-(2-pyridyl)ethyl)amino](3-pyridyl)}-N-(3-pyridylmethyl)carboxamide], which IC50 is on record?
**A.** 3960 nM

**Q.** How did the IC50 turn out when `N#Cc1ccccc1-c1ccc(C(=O)NCc2ccc(N)nc2)c(NCCc2cccc(F)c2)n1` [N-[(6-amino(3-pyridyl))methyl](6-(2-cyanophenyl)-2-{[2-(3-fluorophenyl)ethyl]amino}(3-pyridyl))carboxamide] was run?
**A.** 26 nM

**Q.** With `Cn1cc(-c2nc(NCCc3cccc(F)c3)c(C(=O)NC[C@H]3CCCN3C(=O)OC(C)(C)C)cc2C#N)cn1` [tert-butyl (2R)-2-{[(5-cyano-2-{[2-(3-fluorophenyl)ethyl]amino}-6-(1-methylpyrazol-4-yl)(3-pyridyl))carbonylamino]methyl}pyrrolidinecarboxylate] as the molecule, how does the IC50 read?
**A.** 2520 nM

**Q.** How did the IC50 turn out when `Cn1cc(-c2nc(NCCc3cccc(F)c3)c(C(=O)NC[C@H]3CCCN3C(=O)CCCN)cc2Cl)cn1` [N-{[(2R)-1-(4-aminobutanoyl)pyrrolidin-2-yl]methyl}(5-chloro-2-{[2-(3-fluorophenyl)ethyl]amino}-6-(1-methylpyrazol-4-yl)(3-pyridyl))carboxamide] was run?
**A.** 47 nM

**Q.** With `O=C(NCc1ccccn1)c1ccc(-c2ccccc2)nc1NCCc1ccccn1` [{6-phenyl-2-[(2-(2-pyridyl)ethyl)amino](3-pyridyl)}-N-(2-pyridylmethyl)carboxamide] as the molecule, how does the IC50 read?
**A.** 463 nM

**Q.** How did the IC50 turn out when `Cc1cccc(-c2ccc(C(=O)NCc3cccnc3)c(NCCc3ccccn3)n2)c1C` [{6-(2,3-dimethylphenyl)-2-[(2-(2-pyridyl)ethyl)amino](3-pyridyl)}-N-(3-pyridylmethyl)carboxamide] was run?
**A.** 6940 nM

**Q.** For `N#Cc1ccccc1-c1ccc(C(=O)NCCOCCN)c(NCCc2cccc(F)c2)n1` [N-[2-(2-aminoethoxy)ethyl](6-(2-cyanophenyl)-2-{[2-(3-fluorophenyl)ethyl]amino}(3-pyridyl))carboxamide], which IC50 is on record?
**A.** 1620 nM

**Q.** With `O=C(NCc1cccnc1)c1ccc(-c2ccccc2Cl)nc1NCCc1ccccn1` [{6-(2-chlorophenyl)-2-[(2-(2-pyridyl)ethyl)amino](3-pyridyl)}-N-(3-pyridylmethyl)carboxamide] as the molecule, how does the IC50 read?
**A.** 4440 nM

**Q.** How did the IC50 turn out when `N#Cc1ccccc1-c1ccc(C(=O)NC[C@@H]2CCCNC2)c(NCCc2cccc(F)c2)n1` [N-[((3R)(3-piperidyl))methyl](6-(2-cyanophenyl)-2-{[2-(3-fluorophenyl)ethyl]amino}(3-pyridyl))carboxamide] was run?
**A.** 2150 nM

**Q.** How did the IC50 turn out when `N#Cc1ccccc1-c1ccc(C(=O)NC[C@@H]2CCC(=O)N2)c(NCCc2cccc(F)c2)n1` [N-[((2S)-5-oxopyrrolidin-2-yl)methyl](6-(2-cyanophenyl)-2-{[2-(3-fluorophenyl)ethyl]amino}(3-pyridyl))carboxamide] was run?
**A.** 133 nM

**Q.** `C[C@@H](CNc1nc(-c2ccccc2)ccc1C(=O)NCc1cccnc1)c1ccccc1` [{2-[((2R)-2-phenylpropyl)amino]-6-phenyl(3-pyridyl)}-N-(3-pyridylmethyl)carboxamide] was tested. Which IC50 did it give?
**A.** 17300 nM

**Q.** How did the IC50 turn out when `N#Cc1ccccc1-c1ccc(C(=O)NC[C@H]2CCC(=O)N2CCCN)c(NCCc2cccc(F)c2)n1` [N-{[(2R)-1-(3-aminopropyl)-5-oxopyrrolidin-2-yl]methyl}(6-(2-cyanophenyl)-2-{[2-(3-fluorophenyl)ethyl]amino}(3-pyridyl))carboxamide] was run?
**A.** 42 nM

**Q.** With `Cn1cc(-c2nc(NCCc3cccc(F)c3)c(C(=O)NCC(CO)CO)cc2F)cn1` [(5-fluoro-2-{[2-(3-fluorophenyl)ethyl]amino}-6-(1-methylpyrazol-4-yl)(3-pyridyl))-N-[3-hydroxy-2-(hydroxymethyl)propyl]carboxamide] as the molecule, how does the IC50 read?
**A.** 134 nM

**Q.** With `N#Cc1ccccc1-c1ccc(C(=O)NCC2CCN(CCCN)C2)c(NCCc2cccc(F)c2)n1` (centres unmarked) [N-{[1-(3-aminopropyl)pyrrolidin-3-yl]methyl}(6-(2-cyanophenyl)-2-{[2-(3-fluorophenyl)ethyl]amino}(3-pyridyl))carboxamide] as the molecule, how does the IC50 read?
**A.** 4790 nM

**Q.** With `CN1CCCC[C@@H]1CNC(=O)c1ccc(-c2ccccc2C#N)nc1NCCc1cccc(F)c1` [N-[((2R)-1-methyl(2-piperidyl))methyl](6-(2-cyanophenyl)-2-{[2-(3-fluorophenyl)ethyl]amino}(3-pyridyl))carboxamide] as the molecule, how does the IC50 read?
**A.** 488 nM

**Q.** `Cn1cc(-c2nc(NCCc3cccc(F)c3)c(C(=O)NC[C@H]3CCCN3C(=O)[C@@H](N)CCCN)cc2F)cn1` [N-{[(2R)-1-((2S)-2,5-diaminopentanoyl)pyrrolidin-2-yl]methyl}(5-fluoro-2-{[2-(3-fluorophenyl)ethyl]amino}-6-(1-methylpyrazol-4-yl)(3-pyridyl))carboxamide] was tested. Which IC50 did it give?
**A.** 78 nM

**Q.** For `O=C(NCc1cccnc1)c1ccc(-c2ccccc2)nc1NCCc1ncccc1F` [(2-{[2-(3-fluoro(2-pyridyl))ethyl]amino}-6-phenyl(3-pyridyl))-N-(3-pyridylmethyl)carboxamide], which IC50 is on record?
**A.** 1480 nM

**Q.** How did the IC50 turn out when `NCC(=O)N1CC[C@@H]1CNC(=O)c1ccc(-c2cn[nH]c2)nc1NCCc1cccc(F)c1` [N-{[(2R)-1-(2-aminoacetyl)azetidin-2-yl]methyl}(2-{[2-(3-fluorophenyl)ethyl]amino}-6-pyrazol-4-yl(3-pyridyl))carboxamide] was run?
**A.** 562 nM

Reference: US7932270B2 (Cytokinetics, Inc., priority 2006, dated 2011)
